Legend:
MRSA 97-115 [1] = experiment: Antibacterial activity test (MIC); format: cell-based, methicillin-resistant Staphylococcus aureus; conditions: Mueller-Hinton Broth, 37° C., 20 to 24 hours
Method in brief: (§1)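 Broth dilution MIC per Japanese Society of Chemotherapy method, in Mueller-Hinton Broth with inoculum of 10^5/ml from 16–20 h cultures at 37° C. Compound (methanol-dissolved) tested at 100 μg/ml and 2^n-fold (n=−10 to 1) twofold steps; MIC expressed in μg/ml.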

MRSA KM 97-108 [2] = experiment: Antibacterial activity test (MIC); format: cell-based, methicillin-resistant Staphylococcus aureus; conditions: Mueller-Hinton Broth, 37° C., 20 to 24 hours
Method in brief: as §1

MRSA KM 97-53 [3] = experiment: Antibacterial activity test (MIC); format: cell-based, methicillin-resistant Staphylococcus aureus; conditions: Mueller-Hinton Broth, 37° C., 20 to 24 hours
Method in brief: as §1

E. coli NIHJ JC-2 [4] = experiment: Antibacterial activity test (MIC); format: cell-based; conditions: Mueller-Hinton Broth, 37° C., 20 to 24 hours
Method in brief: as §1

P. aeruginosa KM 97-5 [5] = experiment: Antibacterial activity test (MIC); format: cell-based; conditions: Mueller-Hinton Broth, 37° C., 20 to 24 hours
Method in brief: as §1

P. aeruginosa No. 12 [6] = experiment: Antibacterial activity test (MIC); format: cell-based; conditions: Mueller-Hinton Broth, 37° C., 20 to 24 hours
Method in brief: as §1

S. aureus 209PJC [7] = experiment: Antibacterial activity test (MIC); format: cell-based; conditions: Mueller-Hinton Broth, 37° C., 20 to 24 hours
Method in brief: as §1

VRE 49 [8] = experiment: Antibacterial activity test (MIC); format: cell-based, vancomycin-resistant enterococci; conditions: Mueller-Hinton Broth, 37° C., 20 to 24 hours
Protocol: Regarding compounds obtained in respective Working Examples, in order to investigate antibacterial activity, minimal inhibitory concentration (MIC) was determined according to a standard method of Japanese Society of Chemotherapy.
As a test bacterium, nine kinds of S. aureus 209PJC, MRSA 97-115, MRSA KM 97-53, MRSA KM97-108, VRE 49, E. coli NIHJ JC-2, P. aeruginosa PAO-1, P. aeruginosa No. 12, P. aeruginosa KM97-5 were used and, as a medium, Mueller-Hinton Broth (DIFCO) was used. One platinum loop of a test bacterium was inoculated into 20 ml of a medium, and static culture was carried out at 37° C. for 16 to 20 hours, and then each bacterium species was diluted with a sterilized physiological saline to 10^5/ml, which was used as a test bacterium solution.
Then, each compound was dissolved in methanol, subjected to ½ stepwise dilution with a medium to prepare a medium for measuring sensitivity, and each 2 ml was dispensed into a test tube. A compound concentration in a medium was adjusted to 100 μg/ml and its 2^n-fold (n=−10 to 1).
Numerical values in Tables represent MIC expressed in μg/ml unit.

E. coli NIHJ JC-2 [9] = experiment: Bactericidal activity test (MBC, phenol coefficient measuring method); format: cell-based
Protocol: (§2) As a test bacterium, the same bacteria species as those of the antibacterial activity test were used; as a medium to be used, a SCD medium (manufactured by Eiken Chemical Co., Ltd.) was used for pre-culture medium; and a heart infusion bouillon medium (manufactured by Eiken Chemical Co., Ltd.) was used as a medium for growing a live bacterium in a test solution after bactericidal treatment. One platinum loop of a test bacterium was inoculated into 20 ml of a medium, and static culture was carried out at 37° C. for 18 to 20 hours, and the cells were adjusted with a sterilized physiological saline to 1×10^7/ml, which was used as a test bacterium solution.
(§3) Then, a solution of each compound in methanol was subjected to ½ stepwise dilution with sterilized water, each 5 ml was dispensed into a test tube, 0.5 ml of the previously prepared test bacterium solution was added thereto, and the mixture was blended well. After 1 minute, 3 minutes and 5 minutes has passed, 5 μl of the test solution was collected and inoculated into 2 ml of a heart infusion bouillon medium, this was cultured at 37° C. for 40 to 48 hours, and the presence or absence of growth of a bacterium was determined. A test was performed three times, a minimum concentration at which growth of a bacterium was not recognized two or more times was adopted as a minimal bactericidal concentration (MBC value).
(§4) Numerical values in Tables represent MBC expressed in μg/ml unit.

P. aeruginosa KM 97-5 [10] = experiment: as above; format: cell-based
Protocol: as §2, §3, §4

P. aeruginosa No. 12 [11] = experiment: as above; format: cell-based
Protocol: as §2, §3, §4

S. aureus 209PJC [12] = experiment: as above; format: cell-based
Protocol: as §2, §3, §4

MRSA 97-115 [13] = experiment: as above; format: cell-based, methicillin-resistant Staphylococcus aureus
Protocol: as §2, §3, §4

MRSA KM 97-108 [14] = experiment: as above; format: cell-based, methicillin-resistant Staphylococcus aureus
Protocol: as §2, §3, §4

MRSA KM 97-53 [15] = experiment: as above; format: cell-based, methicillin-resistant Staphylococcus aureus
Protocol: as §2, §3, §4

VRE 49 [16] = experiment: as above; format: cell-based, vancomycin-resistant enterococci
Protocol: as §2, §3, §4

P. aeruginosa PAO-1 [17] = experiment: Antibacterial activity test (MIC); format: cell-based; conditions: Mueller-Hinton Broth, 37° C., 20 to 24 hours
Method in brief: as §1

P. aeruginosa PAO-1 [18] = experiment: Bactericidal activity test (MBC, phenol coefficient measuring method); format: cell-based
Protocol: as §2, §3, §4

Row | Structure (SMILES) | minimal inhibitory concentration (MIC) (MRSA 97-115 [1]) [µg/mL] | minimal inhibitory concentration (MIC) (MRSA KM 97-108 [2]) [µg/mL] | minimal inhibitory concentration (MIC) (MRSA KM 97-53 [3]) [µg/mL] | minimal inhibitory concentration (MIC) (E. coli NIHJ JC-2 [4]) [µg/mL] | minimal inhibitory concentration (MIC) (P. aeruginosa KM 97-5 [5]) [µg/mL] | minimal inhibitory concentration (MIC) (P. aeruginosa No. 12 [6]) [µg/mL] | minimal inhibitory concentration (MIC) (S. aureus 209PJC [7]) [µg/mL] | minimal inhibitory concentration (MIC) (VRE 49 [8]) [µg/mL] | minimal bactericidal concentration (MBC) (E. coli NIHJ JC-2 [9]; 1 min) [µg/mL] | minimal bactericidal concentration (MBC) (E. coli NIHJ JC-2 [9]; 3 min) [µg/mL] | minimal bactericidal concentration (MBC) (E. coli NIHJ JC-2 [9]; 5 min) [µg/mL] | minimal bactericidal concentration (MBC) (P. aeruginosa KM 97-5 [10]; 1 min) [µg/mL] | minimal bactericidal concentration (MBC) (P. aeruginosa KM 97-5 [10]; 3 min) [µg/mL] | minimal bactericidal concentration (MBC) (P. aeruginosa KM 97-5 [10]; 5 min) [µg/mL] | minimal bactericidal concentration (MBC) (S. aureus 209PJC [12]; 1 min) [µg/mL] | minimal bactericidal concentration (MBC) (S. aureus 209PJC [12]; 3 min) [µg/mL] | minimal bactericidal concentration (MBC) (S. aureus 209PJC [12]; 5 min) [µg/mL] | minimal bactericidal concentration (MBC) (MRSA 97-115 [13]; 1 min) [µg/mL] | minimal bactericidal concentration (MBC) (MRSA 97-115 [13]; 3 min) [µg/mL] | minimal bactericidal concentration (MBC) (MRSA 97-115 [13]; 5 min) [µg/mL] | also measured
1 | N=C(NCCCCCCNC(=N)NC(=N)Nc1ccc(Cl)cc1)NC(=N)Nc1ccc(Cl)cc1.O=C(O)[C@H](O)[C@@H](O)[C@H](O)[C@H](O)CO.O=C(O)[C@H](O)[C@@H](O)[C@H](O)[C@H](O)CO [Control drug, chlorhexidine gluconate, reference compound] | 3.1 | 3.1 | 3.1 | 1.6 | 12.5 | 12.5 | 0.2 | 3.1 | 62.5 | 31.3 | 15.6 | 31 | 16 | 8 | 62.5 | 62.5 | 62.5 | 1000 | 250 | 125 | minimal bactericidal concentration (MBC) (P. aeruginosa No. 12 [11]; 1 min): 125 µg/mL; minimal bactericidal concentration (MBC) (P. aeruginosa No. 12 [11]; 3 min): 32 µg/mL; minimal bactericidal concentration (MBC) (P. aeruginosa No. 12 [11]; 5 min): 32 µg/mL; minimal bactericidal concentration (MBC) (MRSA KM 97-108 [14]; 1 min): 500 µg/mL; minimal bactericidal concentration (MBC) (MRSA KM 97-108 [14]; 3 min): 500 µg/mL; minimal bactericidal concentration (MBC) (MRSA KM 97-108 [14]; 5 min): 500 µg/mL; minimal bactericidal concentration (MBC) (MRSA KM 97-53 [15]; 1 min): 500 µg/mL; minimal bactericidal concentration (MBC) (MRSA KM 97-53 [15]; 3 min): 250 µg/mL; minimal bactericidal concentration (MBC) (MRSA KM 97-53 [15]; 5 min): 250 µg/mL; minimal bactericidal concentration (MBC) (VRE 49 [16]; 1 min): >1000 µg/mL; minimal bactericidal concentration (MBC) (VRE 49 [16]; 3 min): >1000 µg/mL; minimal bactericidal concentration (MBC) (VRE 49 [16]; 5 min): >1000 µg/mL
2 | CC(=O)O.CCCCCCCCCNC1=NC(C)(C)N=C(NCc2ccccc2)N1 [compound 48] | 1.6 | 1.6 | 0.8 | 12.5 | 25 | 25 | 0.8 | 0.8 | 6.3 | 6.3 | 3.1 | 3.1 | 3.1 | 3.1 | 12.5 | 6.3 | 6.3 | 12.5 | 6.3 | 6.3 | minimal inhibitory concentration (MIC) (P. aeruginosa PAO-1 [17]): 12.5 µg/mL; minimal bactericidal concentration (MBC) (P. aeruginosa No. 12 [11]; 1 min): 25 µg/mL; minimal bactericidal concentration (MBC) (P. aeruginosa No. 12 [11]; 3 min): 12.5 µg/mL; minimal bactericidal concentration (MBC) (P. aeruginosa No. 12 [11]; 5 min): 12.5 µg/mL; minimal bactericidal concentration (MBC) (P. aeruginosa PAO-1 [18]; 1 min): 6.3 µg/mL; minimal bactericidal concentration (MBC) (P. aeruginosa PAO-1 [18]; 3 min): 3.1 µg/mL; minimal bactericidal concentration (MBC) (P. aeruginosa PAO-1 [18]; 5 min): 3.1 µg/mL; minimal bactericidal concentration (MBC) (MRSA KM 97-108 [14]; 1 min): 50 µg/mL; minimal bactericidal concentration (MBC) (MRSA KM 97-108 [14]; 3 min): 50 µg/mL; minimal bactericidal concentration (MBC) (MRSA KM 97-108 [14]; 5 min): 25 µg/mL; minimal bactericidal concentration (MBC) (MRSA KM 97-53 [15]; 1 min): 50 µg/mL; minimal bactericidal concentration (MBC) (MRSA KM 97-53 [15]; 3 min): 25 µg/mL; minimal bactericidal concentration (MBC) (MRSA KM 97-53 [15]; 5 min): 25 µg/mL; minimal bactericidal concentration (MBC) (VRE 49 [16]; 1 min): 25 µg/mL; minimal bactericidal concentration (MBC) (VRE 49 [16]; 3 min): 12.5 µg/mL; minimal bactericidal concentration (MBC) (VRE 49 [16]; 5 min): 12.5 µg/mL
3 | CC(=O)O.CCCCCCCCNC1=NC(C)(C)N=C(Nc2cnc3ccccc3c2)N1 [compound 82] | 1.6 | – | – | 25 | – | – | 0.8 | – | 6.3 | 6.3 | 3.1 | – | – | – | 12.5 | 6.3 | 6.3 | 50 | 25 | 25 | minimal inhibitory concentration (MIC) (P. aeruginosa PAO-1 [17]): 50 µg/mL; minimal bactericidal concentration (MBC) (P. aeruginosa PAO-1 [18]; 1 min): 12.5 µg/mL; minimal bactericidal concentration (MBC) (P. aeruginosa PAO-1 [18]; 3 min): 12.5 µg/mL; minimal bactericidal concentration (MBC) (P. aeruginosa PAO-1 [18]; 5 min): 6.3 µg/mL

Source: patent US7622469B2, “2,4-diamino-1,3,5-triazine derivatives” (Hamari Chemicals, Ltd., priority 2002, dated 2009)
